Reference: patent US20030105095A1 (CHEIL JEDANG Corporation, priority 2001, published 2003)

Key:
cyclooxygenase-1 = target: T1, cyclooxygenase-1 (Mus musculus, UniProt P22437); experiment: Cyclooxygenase-1 inhibition in mouse peritoneal macrophages (PGE2 ELISA); assay type: cell-based
T1 construct: endogenous in cells; host or cells: primary mouse peritoneal macrophages (unstimulated)
T1 sequence (P22437 27-602): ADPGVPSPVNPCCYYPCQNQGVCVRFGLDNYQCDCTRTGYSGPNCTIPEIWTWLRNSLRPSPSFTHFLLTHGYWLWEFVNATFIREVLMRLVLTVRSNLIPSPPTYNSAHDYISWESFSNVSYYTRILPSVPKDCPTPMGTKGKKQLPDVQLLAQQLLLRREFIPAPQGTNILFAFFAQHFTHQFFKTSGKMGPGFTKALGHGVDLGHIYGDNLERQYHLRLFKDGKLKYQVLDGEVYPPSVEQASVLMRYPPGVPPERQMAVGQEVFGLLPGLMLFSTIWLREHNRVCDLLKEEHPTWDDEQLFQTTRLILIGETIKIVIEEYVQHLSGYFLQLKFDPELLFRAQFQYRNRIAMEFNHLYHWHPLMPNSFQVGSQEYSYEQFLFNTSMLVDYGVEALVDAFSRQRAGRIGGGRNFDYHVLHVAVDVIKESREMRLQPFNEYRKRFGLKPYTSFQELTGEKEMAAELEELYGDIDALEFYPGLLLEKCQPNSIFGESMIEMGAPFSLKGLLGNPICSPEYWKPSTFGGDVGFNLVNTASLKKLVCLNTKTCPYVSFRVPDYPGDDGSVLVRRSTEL
Method: First of all, the cyclooxygenase-1 was examined through the following procedure.
(§1) Peritoneal fluid in which macrophages were suspended was extracted from a mouse peritoneal cavity and centrifuged at 4° C., 1,000 rpm for 2 minutes. Then, the supernatant was removed, suspended using 20 ml of incomplete RPMI medium [including PC/SM (penicilin/streptomycin)] and again centrifuged under the same condition. […] Then, the cell number was calculated with the hemocytometer and adjusted to reach 1×10^6 cells/ml of cell concentration in the final cell suspension. The resulting suspension was poured into each well of 96-well plate and left with the incubator at 37° C. in 5% CO2 for about 2 hours in order to attach macrophages. […] The resulting cell was cultivated with the incubator at 37° C. in 5% CO2 for about 12˜16 hours. Then, arachidonic acid was added, adjusting to 10 μM of a final concentration and incubated at 37° C. for more 10 minutes and the supernatant of the reacted solution (˜180 μl) was recovered to finish the reaction.

cyclooxygenase-2 = target: T2, cyclooxygenase-2 (Mus musculus, UniProt Q05769); experiment: Cyclooxygenase-2 inhibition in aspirin-treated, LPS-induced mouse peritoneal macrophages (PGE2 ELISA); assay type: cell-based
T2 construct: blended with 3% FBS-RPMI 1640 medium containing 10 μg/ml of LPS in each well; endogenous in cells; host or cells: primary mouse peritoneal macrophages, pretreated with 500 μM aspirin and induced with LPS
T2 sequence (Q05769 18-604): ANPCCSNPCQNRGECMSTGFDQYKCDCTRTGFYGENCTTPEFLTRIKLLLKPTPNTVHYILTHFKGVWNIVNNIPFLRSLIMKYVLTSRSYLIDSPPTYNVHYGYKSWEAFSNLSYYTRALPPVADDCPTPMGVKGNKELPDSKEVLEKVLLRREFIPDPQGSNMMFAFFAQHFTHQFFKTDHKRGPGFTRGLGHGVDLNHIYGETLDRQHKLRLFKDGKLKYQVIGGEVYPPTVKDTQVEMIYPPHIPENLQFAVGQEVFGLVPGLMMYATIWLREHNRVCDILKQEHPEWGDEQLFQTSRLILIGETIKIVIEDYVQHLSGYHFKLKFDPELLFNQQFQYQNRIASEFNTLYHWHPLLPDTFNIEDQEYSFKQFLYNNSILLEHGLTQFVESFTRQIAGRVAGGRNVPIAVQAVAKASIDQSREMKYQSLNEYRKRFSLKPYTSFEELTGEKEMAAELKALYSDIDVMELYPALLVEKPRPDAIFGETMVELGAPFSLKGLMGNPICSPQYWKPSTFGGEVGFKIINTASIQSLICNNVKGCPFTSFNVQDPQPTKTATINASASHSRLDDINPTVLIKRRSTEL
Method: Second, the cyclooxygenase-2 was examined through the following procedure.
as §1, with “RPMI medium [PC/SM (penicilin/streptomycin)] and” for “RPMI medium [including PC/SM (penicilin/streptomycin)] and”, “suspension was treated with aspirin, adjusting 500 μM of final concentration and poured into” for “suspension was poured into”, “96-well plate in 100 μl respectively. Again, it was left with” for “96-well plate and left with”

Row | Structure (SMILES) | Inhibitory effects of cyclooxygenase (COX): COX-1 (cyclooxygenase-1; 3 μM) [% inhibition] | Inhibitory effects of cyclooxygenase (COX): COX-1 (cyclooxygenase-1; 10 μM) [% inhibition] | Inhibitory effects of cyclooxygenase (COX): COX-1 (cyclooxygenase-1; 30 μM) [% inhibition] | Inhibitory effects of cyclooxygenase (COX): COX-2 (cyclooxygenase-2; 30 nM) | Inhibitory effects of cyclooxygenase (COX): COX-2 (cyclooxygenase-2; 100 nM) | Inhibitory effects of cyclooxygenase (COX): COX-2 (cyclooxygenase-2; 300 nM)
1 | CC(C)Oc1ccc(-c2ccc(S(C)(=O)=O)cc2)cc1OC(C)C [Example 4, 4′-methanesulfonyl-3,4-diisopropyloxy-biphenyl] | 58.2 | 70.4 | 78.4 | ˜0 % inhibition | ˜0 % inhibition | ˜0 % inhibition
2 | CCOc1ccc(-c2ccc(S(C)(=O)=O)cc2)cc1OCC [Example 2, 4′-methanesulfonyl-3,4-diethoxy-biphenyl] | 61.5 | 70.5 | 77.1 | 55.2 % inhibition | 60.5 % inhibition | 76.5 % inhibition
3 | CCCCOc1cc(-c2ccc(S(C)(=O)=O)cc2)ccc1OC(C)C [Example 9, 3-butoxy-4-isopropoxy-4′-methanesulfonyl-biphenyl] | 49.8 | 66.4 | 70.8 | 44.2 % inhibition | 59.8 % inhibition | 70.4 % inhibition
4 | COc1ccc(-c2ccc(S(C)(=O)=O)cc2)cc1OC [Example 1, 4′-methanesulfonyl-3,4-dimethoxy-biphenyl] | 44.4 | 50.5 | 64.7 | 46.2 % inhibition | 50.7 % inhibition | 59.7 % inhibition
5 | CS(=O)(=O)c1ccc(-c2ccc(OC3CCCC3)c(OC3CCCC3)c2)cc1 [Example 8, 4′-methanesulfonyl-3,4-dicyclopentyloxy-biphenyl] | 29.7 | 40.2 | 49.7 | 27.4 % inhibition | 42.7 % inhibition | 54.7 % inhibition
6 | CS(=O)(=O)c1ccc(-c2ccc(OC3CC3)c(OC3CC3)c2)cc1 [Example 5, 4′-methanesulfonyl-3,4-dicyclopropyloxy-biphenyl] | 50.3 | 58.4 | 60.4 | 30.2 % inhibition | 33.3 % inhibition | 46.5 % inhibition
7 | CS(=O)(=O)c1ccc(-c2ccc(OCc3ccccc3)c(OCc3ccccc3)c2)cc1 [Example 7, 4′-methanesulfonyl-3,4-dibenzyloxy-biphenyl] | 36.8 | 40.5 | 41.1 | 47.6 % inhibition | 60.3 % inhibition | 68.4 % inhibition
8 | CCCCOc1ccc(-c2ccc(S(C)(=O)=O)cc2)cc1OCCCC [Example 6, 4′-methanesulfonyl-3,4-dibutyloxy-biphenyl] | 14.7 | 20.9 | 22.7 | ˜0 % inhibition | ˜0 % inhibition | ˜0 % inhibition
9 | CCCOc1ccc(-c2ccc(S(C)(=O)=O)cc2)cc1OCCC [Example 3, 4′-methanesulfonyl-3,4-dipropyloxy-biphenyl] | 9.4 | 10.1 | 23.4 | 5.0 % inhibition | 5.5 % inhibition | 10.1 % inhibition
